From patent US10092599B2, “Methods for enhancing hematopoietic stem/progenitor cell engraftment” (CHILDREN'S MEDICAL CENTER CORPORATION, priority 2009, dated 2018)

System: hematopoietic stem/progenitor cell engraftment
Experiment: adult zebrafish whole kidney marrow competitive transplantation assay
Type: in vivo
Conditions: for engraftment signal in pilot screen of 10 bioactive compounds: by four weeks post-transplant, 10 recipients per treatment; for average G/R / percentage of positive recipients: green marrow incubated in vitro 4 hrs, mixed with red marrow 1:4, 4 wpt, compared with DMSO control; for engraftment: by 4 weeks post transplant
Text: A transparent adult zebrafish, casper, was used as a transplantation recipient. Casper is a double homozygous pigment mutant for the nacre allele (devoid of melanocytes) and the roy allele (devoid of iridophores and reduced melanoyctyes), which allows direct visualization of GFP labeled hematopoietic stem cell homing and engraftment without killing the recipients. Two marrows are used: Tg(β-actin:GFP) and Red GloFish® respectively to compete with each other at varying ratios e.g., 1:4, which can generate robust competition between the two donors. In one embodiment, the red marrow is the competitor, as well as an internal control for the transplant. At different timepoints post-transplant, the recipients are anesthetized and two pictures for each recipient are taken by a fluorescence stereomicroscope with GFP/DsRed filters individually. Images are analyzed by software, such as ImageJ, which can quantify the GFP/DsRed fluorescence intensity. The relative engraftment efficiency of the manipulated green marrow is measured by the ratio of the GFP intensity over the DsRed intensity within the same kidney region after background subtraction (labeled as G/R).
A double-color labeled competitive transplantation assay was developed, as shown by the flow chart in FIG. 1A. GFP+ and DsRed2+ marrow cells are isolated from Tg(β-actin:GFP) and commercially available Red GloFish®. The two donor populations are mixed at a certain ratio and injected into sublethally irradiated casper recipients retro-orbitally. The DsRed2+ marrow is used as the competitor. Four weeks later, the engraftment is visualized by fluorescence dissection scope. Pictures of GFP and DsRed engraftment are taken for each recipient and analyzed by ImageJ. The kidney region is manually selected and the average fluorescence intensities of both green and red are measured within the same region. The average background intensity is measured in a region outside the fish, and subtracted from the kidney intensity. The calculation of the relative engraftment is shown by the equation in FIG. 1B.
Adult zebrafish donors are anaesthetized with 0.2% tricaine before blood and kidney collection. Peripheral blood is obtained from adult casper by cardiac puncture with micropipette tips coated with heparin and collected into 0.9×PBS containing 5% FCS. About 3-5 million red blood cells are harvested from one donor. To dissect whole kidney marrow (WKM), a ventral midline incision is made on the donor fish. Whole kidney is dissected out and placed into ice-cold 0.9×PBS containing 5% FCS. Single-cell suspensions are generated by aspiration followed by filtering through a […] nylon mesh filter into a 50 ml conical tube. The flow-though part is diluted with a final volume of 25 ml and centrifuged at 1,500 rpm for 8 minutes. The supernatant is discarded and the pellet cells are resuspended in 1 ml 0.9×PBS containing 5% FCS. The number of viable cells are counted with a hemocytometer. […] Finally, the peripheral blood and kidney marrow cells are centrifuged at 1,500 rpm for 8 minutes, resuspended in 0.9×PBS containing 5% FCS and mixed at a certain ratio and concentration. Casper recipients are anesthetized in tricaine. 4 μl of the cell suspension mixture described above is injected into the circulation retro-orbitally through a Hamilton syringe (26s gauge, 10 μl volume). […] Transplanted recipients can be anesthetized in tricaine and visualized over time on a Zeiss Discovery V8 stereomicroscope with a 1.2× PlanApo lens and GFP/DsRed filters. Images are captured using AxioVision software and for each recipient, two images are taken with GFP or DsRed filter respectively. The images are all saved in .tif format and analyzed using ImageJ software.

Structure (SMILES)	score in the competitive transplant model (at 3 months)	score in the competitive transplant model (at 4 weeks)	engraftment signal in pilot screen of 10 bioactive compounds	average G/R	percentage of positive recipients	engraftment (green marrow incubated in vitro with 10 μM at room temperature for 2-4 hours)	engraftment (green marrow incubated in vitro with 0.5 μM at room temperature for 2-4 hours)
CCCCC(C)(C)[C@H](O)/C=C/[C@H]1[C@H](O)CC(=O)[C@@H]1C/C=C\CCCC(=O)O [dmPGE2, 16-,16-dimethyl Prostaglandin E2]	positive	positive	enhanced signal above the rest of the chemicals tested	significantly increased	significantly increased	increase engraftment	–
O=C1Nc2cc(Br)ccc2C1=C1Nc2ccccc2C1=NO [BIO, 6-bromorindirubin-3′-oxime]	positive	positive	enhanced signal above the rest of the chemicals tested	significantly increased	significantly increased	–	increase engraftment
